# Measured values reported in article PMC5218480 (PLoS ONE, 2017).
# Tested on: MV-4-11 cells
# Experiment: Gene expression microarray analysis (Affymetrix PrimeView) and GSEA
# Type: cell-based, human
# Design: RFU PODN (11730768_x_at) / Fold change /veh PODN (11730768_x_at) / RFU LINC00158 (11744669_a_at) / Fold change /veh LINC00158 (11744669_a_at) / RFU DUSP10 (11751237_a_at) / Fold change /veh DUSP10 (11751237_a_at) / RFU ID3 (11757404_x_at) / Fold change /veh ID3 (11757404_x_at) / RFU PLEKHG5 (11737974_s_at) / Fold change /veh PLEKHG5 (11737974_s_at) / RFU LRRC4B (11730491_at) / Fold change /veh LRRC4B (11730491_at) / RFU GIMAP4 (11747438_a_at) / Fold change /veh GIMAP4 (11747438_a_at) / RFU KRT8 (11758183_x_at) / Fold change /veh KRT8 (11758183_x_at) / RFU CNN1 (11734310_a_at) / Fold change /veh CNN1 (11734310_a_at) / RFU VPS37D (11726825_at) / Fold change /veh VPS37D (11726825_at) / RFU C10orf10 (11716522_x_at) / Fold change /veh C10orf10 (11716522_x_at) / RFU KIR2DL2 /// KIR2DL4 /// KIR2DL5A /// KIR2DL5B /// KIR2DS1 /// KIR2DS2 /// KIR2DS3 /// KIR2DS4 /// KIR3DL3 /// KIR3DL3 /// KIR3DS1 (11738374_at) / Fold change /veh KIR2DL2 /// KIR2DL4 /// KIR2DL5A /// KIR2DL5B /// KIR2DS1 /// KIR2DS2 /// KIR2DS3 /// KIR2DS4 /// KIR3DL3 /// KIR3DL3 /// KIR3DS1 (11738374_at) / RFU C1QL1 (11718748_at) / Fold change /veh C1QL1 (11718748_at) / RFU TMPRSS4 (11747572_a_at) / Fold change /veh TMPRSS4 (11747572_a_at) / RFU HAMP (11756126_x_at) / Fold change /veh HAMP (11756126_x_at) / RFU RNFT2 (11725882_a_at) / Fold change /veh RNFT2 (11725882_a_at) / RFU NR4A2 (11747474_a_at) / Fold change /veh NR4A2 (11747474_a_at) / RFU ABCC12 (11746883_a_at) / Fold change /veh ABCC12 (11746883_a_at) / RFU TMEM136 (11760407_x_at) / Fold change /veh TMEM136 (11760407_x_at) / RFU CLDN22 /// WWC2 (11732394_at) / Fold change /veh CLDN22 /// WWC2 (11732394_at) / RFU HLA-DPB1 (11760878_x_at) / Fold change /veh HLA-DPB1 (11760878_x_at) / RFU SPINT1 (11716480_a_at) / Fold change /veh SPINT1 (11716480_a_at) / RFU GAP43 (11754022_s_at) / Fold change /veh GAP43 (11754022_s_at) / RFU A4GNT (11735810_at) / Fold change /veh A4GNT (11735810_at) / RFU PRB3 (11715151_x_at) / Fold change /veh PRB3 (11715151_x_at) / RFU TUBB4B (11761932_at) / Fold change /veh TUBB4B (11761932_at) / RFU CAPN14 (11732068_a_at) / Fold change /veh CAPN14 (11732068_a_at) / RFU TMCC2 (11721928_a_at) / Fold change /veh TMCC2 (11721928_a_at) / RFU IRGQ (11745062_a_at) / Fold change /veh IRGQ (11745062_a_at) / RFU FAM174B (11720279_a_at) / Fold change /veh FAM174B (11720279_a_at) / RFU TMPRSS4 (11748680_a_at) / Fold change /veh TMPRSS4 (11748680_a_at) / RFU FAM212B (11763350_a_at) / Fold change /veh FAM212B (11763350_a_at) / RFU PLEKHG5 (11743358_a_at) / Fold change /veh PLEKHG5 (11743358_a_at) / RFU ZSCAN30 (11745921_a_at) / Fold change /veh ZSCAN30 (11745921_a_at) / RFU CMKLR1 (11741424_a_at) / Fold change /veh CMKLR1 (11741424_a_at) / RFU LOC101060620 /// MAPK8IP1 (11723275_at) / Fold change /veh LOC101060620 /// MAPK8IP1 (11723275_at) / RFU SPTSSB (11747773_x_at) / Fold change /veh SPTSSB (11747773_x_at) / RFU PRSS12 (11739890_at) / Fold change /veh PRSS12 (11739890_at) / RFU BIN1 (11741810_x_at) / Fold change /veh BIN1 (11741810_x_at) / RFU WNT11 (11732464_a_at) / Fold change /veh WNT11 (11732464_a_at) / RFU C10orf10 (11716521_a_at) / Fold change /veh C10orf10 (11716521_a_at) / RFU C5orf56 (11738089_at) / Fold change /veh C5orf56 (11738089_at) / RFU CYB561 (11721691_x_at) / Fold change /veh CYB561 (11721691_x_at) / RFU ANKRD19P (11752326_a_at) / Fold change /veh ANKRD19P (11752326_a_at) / RFU OR2T12 /// OR2T33 /// OR2T8 (11738714_s_at) / Fold change /veh OR2T12 /// OR2T33 /// OR2T8 (11738714_s_at) / RFU VCAN (11748164_a_at) / Fold change /veh VCAN (11748164_a_at) / RFU JSRP1 (11732532_at) / Fold change /veh JSRP1 (11732532_at) / RFU KRTAP10-11 (11738290_x_at) / Fold change /veh KRTAP10-11 (11738290_x_at) / RFU MYO3A (11730013_a_at) / Fold change /veh MYO3A (11730013_a_at) / RFU EBF3 (11725865_a_at) / Fold change /veh EBF3 (11725865_a_at) / RFU CAMK2N1 (11719241_x_at) / Fold change /veh CAMK2N1 (11719241_x_at) / RFU C5orf56 (11738088_a_at) / Fold change /veh C5orf56 (11738088_a_at) / RFU OLFML3 (11715873_a_at) / Fold change /veh OLFML3 (11715873_a_at) / RFU LOC100653217 /// NTM (11731650_a_at) / Fold change /veh LOC100653217 /// NTM (11731650_a_at) / RFU MAPK11 (11762145_a_at) / Fold change /veh MAPK11 (11762145_a_at) / RFU FIZ1 (11724087_x_at) / Fold change /veh FIZ1 (11724087_x_at) / RFU OASL (11726364_x_at) / Fold change /veh OASL (11726364_x_at) / RFU SOX15 (11748057_x_at) / Fold change /veh SOX15 (11748057_x_at) / RFU CD79A (11719716_a_at) / Fold change /veh CD79A (11719716_a_at) / RFU HIST1H1D (11736915_at) / Fold change /veh HIST1H1D (11736915_at) / RFU CASKIN2 (11723855_a_at) / Fold change /veh CASKIN2 (11723855_a_at) / RFU LOC730098 (11760151_x_at) / Fold change /veh LOC730098 (11760151_x_at) / RFU OR4N2 (11742367_at) / Fold change /veh OR4N2 (11742367_at) / RFU PRRT2 (11749266_a_at) / Fold change /veh PRRT2 (11749266_a_at) / RFU SNX32 (11753110_a_at) / Fold change /veh SNX32 (11753110_a_at) / RFU CDHR5 (11726645_a_at) / Fold change /veh CDHR5 (11726645_a_at) / RFU RCAN1 (11760418_a_at) / Fold change /veh RCAN1 (11760418_a_at) / RFU FAM167A (11723789_a_at) / Fold change /veh FAM167A (11723789_a_at) / RFU FAM26E (11764081_at) / Fold change /veh FAM26E (11764081_at) / RFU ISYNA1 (11749810_s_at) / Fold change /veh ISYNA1 (11749810_s_at) / RFU ACY1 (11761880_at) / Fold change /veh ACY1 (11761880_at) / RFU 11764098_at / Fold change /veh 11764098_at / RFU SAMD14 (11745864_x_at) / Fold change /veh SAMD14 (11745864_x_at) / RFU NPB (11741838_a_at) / Fold change /veh NPB (11741838_a_at) / RFU TMPRSS6 (11731388_a_at) / Fold change /veh TMPRSS6 (11731388_a_at) / RFU KRTAP10-2 (11738614_at) / Fold change /veh KRTAP10-2 (11738614_at) / RFU ARHGAP8 /// PRR5-ARHGAP8 (11727945_x_at) / Fold change /veh ARHGAP8 /// PRR5-ARHGAP8 (11727945_x_at) / RFU KRTAP5-7 /// NADSYN1 (11734609_at) / Fold change /veh KRTAP5-7 /// NADSYN1 (11734609_at) / RFU RASL12 (11751679_a_at) / Fold change /veh RASL12 (11751679_a_at) / RFU CDKN2B (11736163_a_at) / Fold change /veh CDKN2B (11736163_a_at) / RFU PRF1 (11729649_at) / Fold change /veh PRF1 (11729649_at) / RFU, ZNF638 /// ZNF638-IT1 / Fold change vs veh, ZNF638 /// ZNF638-IT1 / RFU, PANK3 / Fold change vs veh, PANK3 / RFU, SH3YL1 / Fold change vs veh, SH3YL1 / RFU, ZEB2 / Fold change vs veh, ZEB2 / RFU, NRIP1 / Fold change vs veh, NRIP1 / RFU, PTTG1IP / Fold change vs veh, PTTG1IP / RFU, CAPN2 / Fold change vs veh, CAPN2 / RFU, MED14 / Fold change vs veh, MED14 / RFU, SNORA58 / Fold change vs veh, SNORA58 / RFU, C1orf63 / Fold change vs veh, C1orf63 / RFU, LRRFIP1 / Fold change vs veh, LRRFIP1 / RFU, NDUFAF7 / Fold change vs veh, NDUFAF7 / RFU, SLC12A2 / Fold change vs veh, SLC12A2 / RFU, IBTK / Fold change vs veh, IBTK / RFU, ESF1 / Fold change vs veh, ESF1 / Fold change vs veh, TMEM50B / RFU, TAOK1 / Fold change vs veh, TAOK1 / RFU, ACBD3 / Fold change vs veh, ACBD3 / RFU, TMA16 / Fold change vs veh, TMA16 / RFU, RWDD3 / Fold change vs veh, RWDD3 / RFU, BCAT1 / Fold change vs veh, BCAT1 / RFU, EDEM3 / Fold change vs veh, EDEM3 / RFU, TMEM33 / Fold change vs veh, TMEM33 / RFU, WDR75 / Fold change vs veh, WDR75 / RFU, AHCTF1 / Fold change vs veh, AHCTF1 / RFU, TFRC / Fold change vs veh, TFRC / RFU, ZDHHC17 / Fold change vs veh, ZDHHC17 / RFU, NOM1 / Fold change vs veh, NOM1 / RFU, ARL8B / Fold change vs veh, ARL8B / RFU, ZBTB11 / Fold change vs veh, ZBTB11 / RFU, TAMM41 / Fold change vs veh, TAMM41 / RFU, KIAA1704 /// LOC100996395 / Fold change vs veh, KIAA1704 /// LOC100996395 / RFU, ING1 / Fold change vs veh, ING1 / RFU, TRMT61B / Fold change vs veh, TRMT61B / RFU, FUBP3 / Fold change vs veh, FUBP3 / RFU, TP53 / Fold change vs veh, TP53 / RFU, TNKS2 / Fold change vs veh, TNKS2 / RFU, ZFP14 / Fold change vs veh, ZFP14 / RFU, ACTR2 / Fold change vs veh, ACTR2 / RFU, PPP3R1 / Fold change vs veh, PPP3R1 / RFU, PIK3R1 / Fold change vs veh, PIK3R1 / RFU, HNRNPA1 / Fold change vs veh, HNRNPA1 / RFU, RNF170 / Fold change vs veh, RNF170 / RFU, ZNF28 / Fold change vs veh, ZNF28 / RFU, RNGTT / Fold change vs veh, RNGTT / RFU, OGT / Fold change vs veh, OGT / RFU, BRD1 / Fold change vs veh, BRD1 / RFU, MARS / Fold change vs veh, MARS / RFU, ZNF655 / Fold change vs veh, ZNF655 / RFU, FAHD1 / Fold change vs veh, FAHD1 / RFU, BDP1 / Fold change vs veh, BDP1 / RFU, LRRCC1 / Fold change vs veh, LRRCC1 / RFU, ARID1A / Fold change vs veh, ARID1A / RFU, ZNF146 / Fold change vs veh, ZNF146 / RFU, ZNF330 / Fold change vs veh, ZNF330 / RFU, GPN3 / Fold change vs veh, GPN3 / RFU, C9orf123 / Fold change vs veh, C9orf123 / RFU, N4BP2L2 / Fold change vs veh, N4BP2L2 / RFU, ARFIP1 / Fold change vs veh, ARFIP1 / RFU, FAM179B / Fold change vs veh, FAM179B / RFU, BCL10 / Fold change vs veh, BCL10 / RFU, UHRF1BP1L / Fold change vs veh, UHRF1BP1L / RFU, BET1 / Fold change vs veh, BET1 / RFU, CNOT2 / Fold change vs veh, CNOT2 / RFU, ZNF268 / Fold change vs veh, ZNF268 / Fold change vs veh, ZNF507 / RFU, DGCR2 / Fold change vs veh, DGCR2 / RFU, WDSUB1 / Fold change vs veh, WDSUB1 / Fold change vs veh, HSP90B1 /// MIR3652 / RFU, ADSS / Fold change vs veh, ADSS / RFU, GK / Fold change vs veh, GK / RFU, ZNF148 / Fold change vs veh, ZNF148 / RFU, TAF9 / Fold change vs veh, TAF9 / RFU, SLC1A5 / Fold change vs veh, SLC1A5 / RFU, SLMO2 / Fold change vs veh, SLMO2 / RFU, ABCC4 / Fold change vs veh, ABCC4 / RFU, LOC101060439 /// RAP1B / Fold change vs veh, LOC101060439 /// RAP1B / RFU, RFX7 / Fold change vs veh, RFX7 / RFU, GTPBP10 / Fold change vs veh, GTPBP10 / RFU, CNEP1R1 / Fold change vs veh, CNEP1R1 / RFU, BIVM-ERCC5 /// ERCC5 / Fold change vs veh, BIVM-ERCC5 /// ERCC5 / RFU, ILF3 / Fold change vs veh, ILF3 / RFU 11762660_at / Fold change /veh 11762660_at / RFU VCAN (11757783_s_at) / Fold change /veh VCAN (11757783_s_at) / RFU DDX43 (11728927_at) / Fold change /veh DDX43 (11728927_at) / RFU KRT8 (11758188_x_at) / Fold change /veh KRT8 (11758188_x_at) / RFU NKD1 (11759106_at) / Fold change /veh NKD1 (11759106_at) / RFU SRD5A1 (11742802_a_at) / Fold change /veh SRD5A1 (11742802_a_at) / RFU TPSAB1 /// TPSB2 (11721975_s_at) / Fold change /veh TPSAB1 /// TPSB2 (11721975_s_at) / RFU GSTM3 (11746129_a_at) / Fold change /veh GSTM3 (11746129_a_at) / RFU IL23R (11737362_x_at) / Fold change /veh IL23R (11737362_x_at) / RFU TMEM51 (11727254_a_at) / Fold change /veh TMEM51 (11727254_a_at) / RFU PIWIL2 (11732686_x_at) / Fold change /veh PIWIL2 (11732686_x_at) / RFU ORM1 (11744905_x_at) / Fold change /veh ORM1 (11744905_x_at) / RFU CCDC152 (11743942_at) / Fold change /veh CCDC152 (11743942_at) / RFU ECM1 (11717891_a_at) / Fold change /veh ECM1 (11717891_a_at) / RFU IL23R (11748794_a_at) / Fold change /veh IL23R (11748794_a_at) / RFU TNFAIP8L3 (11732012_x_at) / Fold change /veh TNFAIP8L3 (11732012_x_at) / RFU MBOAT4 (11741988_at) / Fold change /veh MBOAT4 (11741988_at) / RFU 11764193_at / Fold change /veh 11764193_at / RFU TMEM53 (11763286_at) / Fold change /veh TMEM53 (11763286_at) / RFU MAGEB2 (11727129_at) / Fold change /veh MAGEB2 (11727129_at) / RFU TMEM200A (11744735_a_at) / Fold change /veh TMEM200A (11744735_a_at) / RFU CCDC152 (11751479_a_at) / Fold change /veh CCDC152 (11751479_a_at) / RFU FAM211A (11726209_a_at) / Fold change /veh FAM211A (11726209_a_at) / RFU RGS16 (11746705_a_at) / Fold change /veh RGS16 (11746705_a_at) / RFU VCAN (11755009_s_at) / Fold change /veh VCAN (11755009_s_at) / RFU RHOB (11743442_s_at) / Fold change /veh RHOB (11743442_s_at) / RFU RGS16 (11720943_a_at) / Fold change /veh RGS16 (11720943_a_at) / RFU RGS16 (11720944_at) / Fold change /veh RGS16 (11720944_at) / RFU, VPS4B / Fold change vs veh, VPS4B / RFU, CREB1 / Fold change vs veh, CREB1 / RFU, DNAJC13 / Fold change vs veh, DNAJC13 / RFU, GNAQ / Fold change vs veh, GNAQ / RFU, CDK5R1 / Fold change vs veh, CDK5R1 / RFU, ZRANB3 / Fold change vs veh, ZRANB3 / RFU, CUL4A / Fold change vs veh, CUL4A / RFU, CCNY / Fold change vs veh, CCNY / RFU, UFL1 / Fold change vs veh, UFL1 / RFU, COG3 / Fold change vs veh, COG3 / RFU, DIAPH2 / Fold change vs veh, DIAPH2 / RFU, SKA2 / Fold change vs veh, SKA2 / RFU, AFF3 / Fold change vs veh, AFF3 / RFU, LMF1 / Fold change vs veh, LMF1 / RFU, IPO11 / Fold change vs veh, IPO11 / RFU, DFFB / Fold change vs veh, DFFB / RFU, FOXP1 / Fold change vs veh, FOXP1 / RFU, CARD8 / Fold change vs veh, CARD8 / RFU, STRN3 / Fold change vs veh, STRN3 / RFU, ADK / Fold change vs veh, ADK / RFU, RASSF2 / Fold change vs veh, RASSF2 / RFU, WIPF1 / Fold change vs veh, WIPF1 / RFU, LARP1B / Fold change vs veh, LARP1B / RFU, RASA1 / Fold change vs veh, RASA1 / RFU, RB1 / Fold change vs veh, RB1 / RFU, PPFIA1 / Fold change vs veh, PPFIA1 / RFU, MAT2A / Fold change vs veh, MAT2A / RFU, CCT5 / Fold change vs veh, CCT5 / RFU, WDR92 / Fold change vs veh, WDR92 / RFU, CUX1 / Fold change vs veh, CUX1 / RFU, TTC7A / Fold change vs veh, TTC7A / RFU, TMEM135 / Fold change vs veh, TMEM135 / RFU, DEPTOR / Fold change vs veh, DEPTOR / RFU, CPM / Fold change vs veh, CPM / RFU, DNAJB6 / Fold change vs veh, DNAJB6 / RFU, CACNA2D3 / Fold change vs veh, CACNA2D3 / RFU, DTX4 / Fold change vs veh, DTX4 / RFU, TFCP2 / Fold change vs veh, TFCP2 / RFU, GMCL1 /// GMCL1P1 / Fold change vs veh, GMCL1 /// GMCL1P1 / RFU, AEBP2 / Fold change vs veh, AEBP2 / RFU, SNHG1 /// SNORD22 /// SNORD25 /// SNORD26 /// SNORD27 /// SNORD28 /// SNORD29 /// SNORD31 / Fold change vs veh, SNHG1 /// SNORD22 /// SNORD25 /// SNORD26 /// SNORD27 /// SNORD28 /// SNORD29 /// SNORD31 / Fold change (Aza/veh), C12orf56 (ProbeSet 11735607_a_at) / Fold change (ACY-1035/veh), C12orf56 (ProbeSet 11735607_a_at) / Fold change (Aza/veh), FGFR1OP (ProbeSet 11751329_s_at) / Fold change (ACY-1035/veh), FGFR1OP (ProbeSet 11751329_s_at) / Fold change (Aza/veh), VPS36 (ProbeSet 11739960_a_at) / Fold change (ACY-1035/veh), VPS36 (ProbeSet 11739960_a_at) / RFU SYPL1 (11715823_x_at) / Fold change /veh SYPL1 (11715823_x_at) / RFU IGFBP7 (11715501_s_at) / Fold change /veh IGFBP7 (11715501_s_at) / RFU REEP3 (11722064_at) / Fold change /veh REEP3 (11722064_at) / RFU IGLL1 (11728026_x_at) / Fold change /veh IGLL1 (11728026_x_at): dose or concentration left out as unconfirmed
# Conditions: ProbeSet 11729384_s_at; LIST D
smiles,measurement,value
Nc1ccc(-c2cccs2)cc1NC(=O)c1ccc2c(c1)cc(C1CC1)n2CCN1CCOCC1 [ACY-1035],"Fold change vs veh, CCNY",0.87
